Tests used:
[1] = target: T1, NMDA Receptor (NR1/NR2B Receptor) (Rattus norvegicus, UniProt P35439+Q00960); experiment: Experiment of binding to NMDA receptor (NR1/NR2B receptor), [3H]-Ifenprodil competition, rat cerebral cortex membrane; conditions: [3H]-Ifenprodil 5 nM, GBR-12909 3 μM, ice temperature 120 minutes
T1 construct: this was used as a membrane specimen in an experiment; from tissue; host or cells: rat cerebral cortex membranes
Procedure: Using Ifenprodil which is a NR1/NR2B subtype receptor-specific antagonist as a ligand, an experiment of receptor competition with a test compound was performed.
A male Slc:Wistar rat was used as an animal, a decapitated brain was isolated, and cerebral cortex was fractionated. The cerebral cortex was homogenized with a 20-fold amount of an ice-cooled 50 mM Tris/HCl buffer (pH 7.4), and centrifuged at 4° C. and 27,500×g for 10 minutes. The resulting precipitate was suspended in the same buffer, and the suspension was centrifuged again. This procedure was repeated three times, and the resulting precipitate was suspended in a buffer, and stored at −80° C. Immediately before an experiment, the frozen suspension was thawed at room temperature, and centrifuged at 4° C. and 27,500×g for 10 minutes, and the resulting precipitate was suspended in a buffer. The suspension was further diluted 10-fold with a buffer, and this was used as a membrane specimen in an experiment.
In a binding experiment, to 470 μl of the membrane specimen were added 10 μl of different concentrations of a test compound, 10 μl of a labeled ligand [3H]-Ifenprodil and 10 μl of GBR-12909, and this was incubated at an ice temperature for 120 minutes. A concentration of [3H]-Ifenprodil of the labeled ligand was finally 5 nM, and a concentration of GBR-12909 was finally 3 μM. For measuring a total binding amount, DMSO as a solvent was used and, for measuring a non-specific binding amount, 100 μM of Ifenprodil was used. In addition, GBR-12909 was added in order to block binding of [3H]-Ifenprodil to a non-polyamine-sensitive site. After incubation, a bound body and a free body were separated using a Whatman GF/C filter (manufactured by Whatman), and the filter was washed with 2.5 ml of an ice-cooled buffer four times. The filter was immersed in a liquid scintillation (Clear-sol I, manufactured by Nacalai tesque) in a vial bottle, and radioactivity (dpm) was measured with a liquid scintillation counter. From a measured value, a binding inhibition rate (%) was obtained by the following equation, and a dose at which binding is inhibited 50% (IC50) was calculated. A formula of GBR-12909 (Vanoxerine) is shown below.
Binding inhibition rate(%)=100−[(binding amount in presence of test compound−non-specific amount)/(total binding amount−non-specific binding amount)]×100

[2] = target: T2, mouse NMDA receptor (NR1 subunit and NR2B subunit co-expressed in HEK293 cells) (Mus musculus, UniProt P35438+Q01097); experiment: Expression of NMDA receptor and measurement of Ca ion flow in amount (HEK293 cells, Fluo-3/AM, FDSS3000); assay type: cell-based; conditions: Ca ion flow in induced with glutamic acid 20 μM/glycine 2 μM, read-out: Ca2+ 1050
T2 construct: expressed in transfected cells; host or cells: HEK293 cells, transient, pcDNA 3.1 plasmids
Procedure: Test Example 2 Expression of NMDA receptor and measurement of Ca ion flow in amount
A complementary DNA (cDNA) of a mouse NMDA receptor subunit was transiently introduced into HEK293 cells and, after one day from introduction, change in a glutamic acid/glycine-induced intracellular Ca amount was measured using a Ca ion reactive fluorescent dye.
HEK293 cells were cultured and passaged using a modified Dulbecco's Eagle medium (DMEM, low glucose).
20,000/well of HEK293 cells were seeded on a 96-well plate, a NR1 subunit and a NR2B subunit of a NMDA receptor incorporated into pcDNA 3.1 plasmid were transiently introduced into cells, and co-expression of subunits was performed. An introduction amount of a DNA was such that the NR1 subunit was 0.025 μg, and the NR2B subunit was 0.075 μg per well. For cells after introduction, cell death was inhibited using 50 μM of a NMDA receptor antagonist MK-801.
For adjusting a test compound and washing cells, Krebs Ringer Hepes buffer (KRH, Ca: 5 mM) was used.
One day after introduction, the NMDA receptor antagonist MK-801 was washed off using the KRH buffer, and a Ca ion indicative fluorescent dye Fluo-3/AM was made to be taken into cells. Flow in of a Ca ion was induced with glutamic acid 20 μM/glycine 2 μM. Change in a fluorescence amount due to intracellular Ca ion flow in was measured at excitation 480 nm using a fluorescence imaging system FDSS3000.
From a measured value of the test compound, a Ca ion flow in inhibitory rate (%) was obtained by the following equation, and a dose at which flow in is 50% inhibited (IC50) was calculated.
Ca ion flow in inhibitory rate(%)=100−[(fluorescence amount in presence of test compound−background fluorescence amount)/(total fluorescence amount[…]background fluorescence amount)]×100

T2 sequence (Q01097 27-1482, other chains not shown): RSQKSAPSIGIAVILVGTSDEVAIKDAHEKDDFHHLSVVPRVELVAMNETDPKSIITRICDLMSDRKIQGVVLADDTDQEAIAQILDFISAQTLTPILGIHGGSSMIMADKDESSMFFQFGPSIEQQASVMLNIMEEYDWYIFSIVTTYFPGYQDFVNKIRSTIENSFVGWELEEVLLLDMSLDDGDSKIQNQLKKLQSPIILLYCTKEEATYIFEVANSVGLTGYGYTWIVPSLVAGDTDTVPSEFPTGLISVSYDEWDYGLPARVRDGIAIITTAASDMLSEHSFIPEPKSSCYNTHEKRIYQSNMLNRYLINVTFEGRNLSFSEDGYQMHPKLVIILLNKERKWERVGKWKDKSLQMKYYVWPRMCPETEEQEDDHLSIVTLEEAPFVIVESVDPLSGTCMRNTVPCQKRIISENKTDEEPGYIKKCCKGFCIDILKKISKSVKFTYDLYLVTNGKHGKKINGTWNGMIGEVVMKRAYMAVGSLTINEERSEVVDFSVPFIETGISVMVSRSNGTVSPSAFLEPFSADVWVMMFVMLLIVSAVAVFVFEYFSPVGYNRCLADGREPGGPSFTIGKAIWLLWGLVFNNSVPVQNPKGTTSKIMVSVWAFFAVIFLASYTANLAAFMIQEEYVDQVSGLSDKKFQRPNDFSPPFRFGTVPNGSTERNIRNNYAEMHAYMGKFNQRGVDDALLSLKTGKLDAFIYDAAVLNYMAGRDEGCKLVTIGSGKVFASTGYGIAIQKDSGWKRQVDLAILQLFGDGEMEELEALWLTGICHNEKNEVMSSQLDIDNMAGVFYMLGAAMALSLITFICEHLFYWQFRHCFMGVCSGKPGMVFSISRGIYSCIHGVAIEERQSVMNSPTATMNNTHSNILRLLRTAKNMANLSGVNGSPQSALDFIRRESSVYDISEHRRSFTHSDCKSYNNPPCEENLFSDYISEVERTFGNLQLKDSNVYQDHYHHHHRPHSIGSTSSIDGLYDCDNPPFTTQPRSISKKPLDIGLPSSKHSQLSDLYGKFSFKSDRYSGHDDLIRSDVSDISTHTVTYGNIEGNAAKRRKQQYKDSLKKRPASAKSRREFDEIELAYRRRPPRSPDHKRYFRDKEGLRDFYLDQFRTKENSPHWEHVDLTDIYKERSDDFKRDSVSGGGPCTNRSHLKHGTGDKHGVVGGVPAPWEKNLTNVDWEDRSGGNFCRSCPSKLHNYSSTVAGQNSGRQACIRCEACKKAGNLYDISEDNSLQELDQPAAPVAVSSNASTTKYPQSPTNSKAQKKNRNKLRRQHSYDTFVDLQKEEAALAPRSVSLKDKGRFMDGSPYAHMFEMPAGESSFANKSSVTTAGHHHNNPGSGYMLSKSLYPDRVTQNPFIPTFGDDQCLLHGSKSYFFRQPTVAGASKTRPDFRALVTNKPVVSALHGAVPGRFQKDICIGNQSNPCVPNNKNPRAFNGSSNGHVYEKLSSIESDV
T1 sequence (Q00960 27-1482, other chains not shown): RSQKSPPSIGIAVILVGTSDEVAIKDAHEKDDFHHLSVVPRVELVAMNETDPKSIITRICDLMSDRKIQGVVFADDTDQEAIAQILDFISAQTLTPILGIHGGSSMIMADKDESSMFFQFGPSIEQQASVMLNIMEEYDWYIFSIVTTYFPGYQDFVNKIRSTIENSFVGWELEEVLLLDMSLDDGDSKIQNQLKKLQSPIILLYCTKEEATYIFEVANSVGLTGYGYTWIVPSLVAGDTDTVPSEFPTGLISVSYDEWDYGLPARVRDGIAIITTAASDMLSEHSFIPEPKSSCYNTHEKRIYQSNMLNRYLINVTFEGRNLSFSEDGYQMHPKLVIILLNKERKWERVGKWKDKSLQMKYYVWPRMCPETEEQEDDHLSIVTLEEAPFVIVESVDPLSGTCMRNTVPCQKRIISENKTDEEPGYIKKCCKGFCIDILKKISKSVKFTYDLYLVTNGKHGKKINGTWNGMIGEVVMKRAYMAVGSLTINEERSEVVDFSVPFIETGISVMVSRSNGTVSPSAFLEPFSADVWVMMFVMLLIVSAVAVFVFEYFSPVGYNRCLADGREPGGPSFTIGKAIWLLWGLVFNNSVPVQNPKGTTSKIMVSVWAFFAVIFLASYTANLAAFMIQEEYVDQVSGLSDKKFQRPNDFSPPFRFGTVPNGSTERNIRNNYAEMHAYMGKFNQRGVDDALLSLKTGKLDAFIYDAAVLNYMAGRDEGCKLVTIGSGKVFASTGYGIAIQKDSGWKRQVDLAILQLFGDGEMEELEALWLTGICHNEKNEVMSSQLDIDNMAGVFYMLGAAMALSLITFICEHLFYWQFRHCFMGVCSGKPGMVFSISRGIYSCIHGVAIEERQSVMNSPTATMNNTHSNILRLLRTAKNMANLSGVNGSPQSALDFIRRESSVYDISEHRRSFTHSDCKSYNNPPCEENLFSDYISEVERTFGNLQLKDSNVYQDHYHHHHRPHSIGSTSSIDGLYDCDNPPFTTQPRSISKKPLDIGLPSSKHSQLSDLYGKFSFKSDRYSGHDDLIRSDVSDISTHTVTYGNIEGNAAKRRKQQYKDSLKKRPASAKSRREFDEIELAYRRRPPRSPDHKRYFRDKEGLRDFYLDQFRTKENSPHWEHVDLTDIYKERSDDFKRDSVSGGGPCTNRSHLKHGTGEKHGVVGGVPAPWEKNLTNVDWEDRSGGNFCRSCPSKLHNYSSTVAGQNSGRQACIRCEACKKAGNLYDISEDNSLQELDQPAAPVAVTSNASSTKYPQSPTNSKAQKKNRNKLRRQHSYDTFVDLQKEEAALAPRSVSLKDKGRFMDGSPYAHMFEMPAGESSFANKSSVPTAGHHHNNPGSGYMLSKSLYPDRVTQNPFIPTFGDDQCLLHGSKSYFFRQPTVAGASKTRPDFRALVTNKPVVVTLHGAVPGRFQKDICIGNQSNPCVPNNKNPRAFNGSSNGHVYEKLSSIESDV

SMILES | IC50 [1] | IC50 [2] | melting point
O=C(CNc1ccc2[nH]c(=O)oc2c1)N1CCN(c2ccc(Cl)c(F)c2)CC1 [Compound I-1] | 0.149 µM | 0.049 µM | 136 to 138 °C
CC(Nc1ccc2[nH]c(=O)oc2c1)C(=O)N1CCN(c2ccc(Cl)c(F)c2)CC1 (stereo not drawn) [Compound I-4] |  |  | 223 to 225 °C
C[C@@H]1CN(c2ccc(F)cc2)C[C@H](C)N1C(=O)C(=O)Nc1ccc2[nH]c(=O)oc2c1 [Compound I-5] |  |  | 245 to 246 °C
C[C@@H]1CN(c2ccc(Cl)c(F)c2)CCN1C(=O)CNc1ccc2[nH]c(=O)oc2c1 [Compound I-6] | 0.026 µM | 0.02 µM | 224 to 226 °C
COc1c(F)cc(N2CCN(C(=O)CNc3ccc4[nH]c(=O)oc4c3)CC2)cc1F [Compound I-7] |  | 0.089 µM | 194 to 196 °C

Continued, values first:

IC50 [1] | IC50 [2] | melting point | SMILES
0.04 µM | 0.014 µM | 123 to 124 °C | Cc1cc(N2CCN(C(=O)C(=O)Nc3ccc4[nH]c(=O)oc4c3)[C@H](C)C2)ccc1Cl [Compound I-40]
 |  | 112 to 114 °C | Cc1cc(N2CCN(C(=O)CNc3ccc4[nH]c(=O)oc4c3)C[C@H]2C)ccc1Cl [Compound I-63]
 |  | 223 to 225 °C | O=C(CN1CCN(c2ccc(Cl)cc2)CC1=O)Nc1ccc2[nH]c(=O)oc2c1 [Compound I-67]

Reference: patent US20110251212A1, “PIPERAZINE DERIVATIVES” (SHIONOGI & CO., LTD., priority 2007, published 2011)
